One experiment deals with HCT116 cells. The experiment can be described thus: Cell viability assay (MTT) in HCT116 cell line. The experiment is classed as cell-based. The settings on record: Homo sapiens, HCT-116, 72 hrs, IC50 range, read-out: HCT116 cell growth inhibition. In a few lines:
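MTT read-out (4 hrs, 37 °C, DMSO extraction) following 72 hrs of treatment with 0-50 μM Aurora inhibitor. HCT116 cells were plated a day earlier and tested in triplicate; IC50 derived from the curve.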

The target in experiment [1] is T1, Aurora-A (Homo sapiens, UniProt O14965).
T1 sequence (O14965 1-403): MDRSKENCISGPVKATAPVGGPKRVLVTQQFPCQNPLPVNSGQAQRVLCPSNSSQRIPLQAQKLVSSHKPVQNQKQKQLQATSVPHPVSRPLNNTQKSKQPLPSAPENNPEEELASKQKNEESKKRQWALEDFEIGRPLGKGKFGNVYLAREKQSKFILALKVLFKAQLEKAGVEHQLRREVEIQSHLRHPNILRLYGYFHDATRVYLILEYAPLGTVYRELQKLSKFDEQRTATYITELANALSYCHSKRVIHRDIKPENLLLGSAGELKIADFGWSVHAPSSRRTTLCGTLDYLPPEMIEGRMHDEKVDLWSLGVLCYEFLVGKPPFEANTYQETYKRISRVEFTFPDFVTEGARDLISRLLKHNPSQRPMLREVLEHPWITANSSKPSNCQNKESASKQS
Nature of the experiment: Flashplate Aurora A enzyme inhibition assay. In kind it is biochemical. The settings on record: Flashplate assay; IC50 range; read-out: Aurora-A inhibition. The gist of the method:
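This is a radiometric Flashplate format: plates were precoated with DTT, and compound (in 2% DMSO) was mixed with kinase buffer (pH 7.5 Tris, MgCl2, NaCl) containing 1 mM MBP, 20 μM ATP and ^33P-ATP. The reaction was started with 250 ng Aurora-A per well and incubated 2 h at RT. It was then stopped by 10 mM sodium pyrophosphate washing, and plates were scintillation-counted.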

The target in experiment [2] is T2, Aurora-C (Homo sapiens, UniProt Q9UQB9).
T2 sequence (Q9UQB9 1-309): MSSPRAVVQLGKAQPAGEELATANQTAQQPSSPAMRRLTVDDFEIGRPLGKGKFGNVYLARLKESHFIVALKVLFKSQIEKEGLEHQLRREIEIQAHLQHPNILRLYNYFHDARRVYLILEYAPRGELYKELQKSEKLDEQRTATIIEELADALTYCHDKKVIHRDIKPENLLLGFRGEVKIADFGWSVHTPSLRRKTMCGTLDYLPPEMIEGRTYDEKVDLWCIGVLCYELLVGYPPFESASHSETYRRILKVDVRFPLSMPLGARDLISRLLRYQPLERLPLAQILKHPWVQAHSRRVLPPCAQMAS
The experiment can be described thus: Filterplate assay for Aurora-C inhibitors. The experiment is classed as biochemical. The settings on record: read-out: IC50 range in respect of Aurora-C. The protocol: (§1) 40 μl master mix of kinase buffer (50 mM Tris pH 7.5, 10 mM NaCl, 2.5 mM MgCL2, 1 mM DTT, 20 μM ATP, 0.025 μCi/μl ^33P-ATP, and 100 μg/ml MBP was added to a 96-well plate followed by addition of 250 ng of Aurora-A enzyme per well. The plate was shaken for approximately 2 min on a flat-bed plate shaker (Wellmix, Denley, UK) and incubated for 2 hours at room temperature. The reaction was stopped by the addition of 30 μl of 2% orthophosphoric acid. The reaction mixture was then transferred and filtered on the 96-well Multi-Screening Filter Plate (MATAH0P00, MILLIPORE), pre-treated with 50 μl per well of 0.5% orthophosphoric acid. The plate was washed twice with 200 μl of 0.5% orthophosphoric acid and vacuum-dried. 25 μl of scintillant (Microscint™20, PerkinElmer) per well was added and the plate was shaken for 10 min. Finally, the plate was re-sealed with TopSealA and the signal from the filter-bound component was read on TopCount-NXT™ (PerkinElmer Life Sciences UK Ltd., Hounslow, UK).
(§2) Filterplate Assay for Identification and Evaluation of Aurora-B and Aurora-C Inhibitors
(§3) For the determination of the inhibitory activity against Aurora-B or Aurora-C, the same conditions were followed in the assay using Aurora-B or Aurora-C enzymes.

For experiment [3], the target named is T3, Aurora-B (Homo sapiens, UniProt Q96GD4). Nature of the experiment: Filterplate assay for Aurora-B inhibitors. The settings on record: read-out: IC50 range in respect of Aurora-B. The experiment is classed as biochemical. As to the method:
as §1, §2, §3

Experiment [4] concerns the target T2, Aurora-C. Nature of the experiment: Flashplate assay for Aurora-C inhibitors. In kind it is biochemical. The settings on record: read-out: IC50 against Aurora-C. As to the method: (§4) On this assay 384-well Basic Flashplate® (SMP400E, PerkinElmer) as solid assay platform was used. The plates were coated overnight at 4° C. with […] at 100 μg/ml in PBS buffer and used after being washed twice with PBS. 5 μl of compound in 2% DMSO was added to each well followed by 15 μl master mix of kinase buffer (50 mM Tris pH 7.5, 10 mM NaCl, 2.5 mM MgCl2, 1 mM […], 20 μM ATP, and 0.025 μCi/μl ^33P-ATP). Finally, 250 ng per well of Aurora-A enzyme was added. The plate was shaken for approximately 2 min on a flat-bed plate shaker (Wellmix, Denley, UK) and incubated for 2 hours at room temperature. The reaction was stopped by washing the plate twice on a 16-pin wash (ELX50 BioTek Instruments Ltd., Northstar, Bedford, UK) with 10 mM sodium pyrophosphate. The plate was then read on a TopCount-NX™ (PerkinElmer Life Sciences UK Ltd., Hounslow, UK).
(§5) Flashplate® Assay for Identification and Evaluation of Aurora-B and Aurora-C Inhibitors
as §3

The target in experiment [5] is T3, Aurora-B. Nature of the experiment: Flashplate assay for Aurora-B inhibitors. The note with it: read-out: IC50 against Aurora-B. The experiment is classed as biochemical. The protocol:
as §4, §5, §3

For experiment [6], the target named is T1, Aurora-A. The experiment can be described thus: Filterplate assay for Aurora-A inhibitors. The experiment is classed as biochemical. The settings on record: read-out: IC50 against Aurora-A. The protocol: Filterplate Assay for Identification and Evaluation of Aurora-A Inhibitors
as §1

Each structure is given as a SMILES string.

T3 sequence (Q96GD4 whole entry): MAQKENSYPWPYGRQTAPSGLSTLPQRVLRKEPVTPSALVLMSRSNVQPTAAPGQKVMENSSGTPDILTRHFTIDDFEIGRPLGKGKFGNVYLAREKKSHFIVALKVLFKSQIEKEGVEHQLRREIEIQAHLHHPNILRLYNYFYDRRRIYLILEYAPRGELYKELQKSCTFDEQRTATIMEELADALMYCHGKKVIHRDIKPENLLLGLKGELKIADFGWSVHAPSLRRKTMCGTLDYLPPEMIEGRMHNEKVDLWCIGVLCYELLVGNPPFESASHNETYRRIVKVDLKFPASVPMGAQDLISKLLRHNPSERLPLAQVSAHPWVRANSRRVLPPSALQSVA

As to `Brc1cnc2[nH]c(-c3ccc(CN4CCNCC4)cc3)nc2c1N1CCN(Cc2cccnc2)CC1` [Example 106, 6-Bromo-2-(4-(piperazin-1-ylmethyl)phenyl)-7-(4-(pyridin-3-ylmethyl)piperazin-1-yl)-3H-imidazo[4,5-b]pyridine], the IC50 in the experiment on HCT116 cells is < 500 nM; at Aurora-A [1], < 500 nM; on Aurora-C [2], < 500 nM; at Aurora-B [3], 500 to 2000 nM.

As to `Brc1cnc2[nH]c(-c3ccc(CN4CCOCC4)cc3)nc2c1N1CCN(Cc2cccnc2)CC1` [Example 65, 6-Bromo-2-(4-morpholin-4-ylmethyl-phenyl)-7-(4-pyridin-3-ylmethyl-piperazin-1-yl)-3H-imidazo[4,5-b]pyridine], the IC50 in the experiment on HCT116 cells is < 500 nM; at Aurora-A [1], < 500 nM; on Aurora-C [2], < 500 nM; on Aurora-B [3], 500 to 2000 nM.

`Cc1nc(CN2CCN(c3c(Br)cnc4[nH]c(-c5ccc(Cn6cccn6)cc5)nc34)CC2)cs1` [Example 162, 4-((4-(2-(4-((1H-Pyrazol-1-yl)methyl)phenyl)-6-bromo-3H-imidazo[4,5-b]pyridin-7-yl)piperazin-1-yl)methyl)-2-methylthiazole]: the IC50 in the experiment on HCT116 cells was < 500 nM; at Aurora-A [1], < 500 nM; on Aurora-C [2], < 500 nM; at Aurora-B [3] it was 500 to 2000 nM.

In the case of `Cc1cc(CN2CCN(c3c(Br)cnc4[nH]c(-c5ccc(Cn6cccn6)cc5)nc34)CC2)no1` [Example 77, 6-Bromo-7-[4-(5-methyl-isoxazol-3-ylmethyl)-piperazin-1-yl]-2-(4-pyrazol-1-ylmethyl-phenyl)-3H-imidazo[4,5-b]pyridine], the IC50 in the experiment with HCT116 cells, at Aurora-A [1], at Aurora-C [2] and on Aurora-B [3] was < 500 nM each time.

Take `Cc1cc(CN2CCN(c3c(Br)cnc4[nH]c(-c5ccc(CN6CCOCC6)cc5)nc34)CC2)no1` [Example 75, 6-Bromo-7-[4-(5-methyl-isoxazol-3-ylmethyl)-piperazin-1-yl]-2-(4-morpholin-4-ylmethyl-phenyl)-3H-imidazo[4,5-b]pyridine]: the IC50 in the experiment on HCT116 cells, on Aurora-A [1], at Aurora-C [2] and on Aurora-B [3] was < 500 nM each time.

Take `Brc1cnc2[nH]c(-c3ccc(CN4CCOCC4)cc3)nc2c1N1CCN(Cc2cncnc2)CC1` [Example 122, 4-(4-(6-Bromo-7-(4-(pyrimidin-5-ylmethyl)piperazin-1-yl)-3H-imidazo[4,5-b]pyridin-2-yl)benzyl)morpholine]: the IC50 with HCT116 cells, at Aurora-A [1], at Aurora-C [2] and at Aurora-B [3] was < 500 nM each time.

For `CN(C)c1ccc(-c2nc3c(N4CCN(CC(=O)Nc5nccs5)CC4)c(Cl)cnc3[nH]2)cc1` [Example 1, 2-{4-[6-Chloro-2-(4-dimethylamino-phenyl)-3H-imidazo[4,5-b]pyridin-7-yl]-piperazin-1-yl}-N-thiazol-2-yl-acetamide], the IC50 at Aurora-C [4] was 362 nM; in the experiment with HCT116 cells, < 500 nM; on Aurora-B [5], 110 nM; at Aurora-A [1], < 500 nM; on Aurora-A [6] it was 80 nM.

For the compound `CN(C)c1ccc(-c2nc3c(N4CCN(CC(=O)Nc5nccs5)CC4)c(Br)cnc3[nH]2)cc1` [Example 2, 2-{4-[6-Bromo-2-(4-dimethylamino-phenyl)-3H-imidazo[4,5-b]pyridin-7-yl]-piperazin-1-yl}-N-thiazol-2-yl-acetamide], the IC50 on Aurora-C [4] was 530 nM; in the experiment with HCT116 cells, < 500 nM; at Aurora-B [5] it was 410 nM; on Aurora-A [1], < 500 nM; on Aurora-A [6], 70 nM.
